# Data reported in US12589101B2, “Cyclodextrin protein drug conjugates” (Regeneron Pharmaceuticals, Inc., priority 2017, dated 2026).
# Read-outs that look alike come from different tables or passages of the source.
# Key:
# [1] = Solubility of linker-payloads (LC-MS standard curve, saturated solution); format: physicochemical; settings: water, thermodynamic from solid
# Description: The following test assays the solubility of the linker-payloads with a cyclodextrin moiety and the linker-payloads without a cyclodextrin moiety.
# The test compounds were dissolved in DMSO to build a standard curve using LC-MS method A or B. The test sample was dissolved in water and sonicated for 10 minutes, and then centrifuged. The upper clear solution was analyzed using the same method A or B and the solubility was calculated based on its peak area.
# Detailed test procedures were as follows: • 1. […] 0.05 mg of compound was suspended in water (1 mL) and sonicated for 10 minutes. After centrifugation, the clear solution above was collected to provide the saturated sample solution. • 3. All the standard solutions A, B, C, D, E and sample solution were analyzed by LCMS (using the same method and same injection volume) to obtain the peak areas. • 4. Calculate the standard curve according to the data of A-D (X=concentration, Y=peak areas). • 5. Calculate to obtain the concentration of saturated sample solution according to the functions obtained above.
# Cathepsin B = Cathepsin B (Homo sapiens, UniProt P07858); experiment: Cathepsin B cleavage rate of linker-payloads (Example 66); format: biochemical; settings: Cathepsin B cleavage rate; for CapB (%): pH 5.0, 37° C.; for capB: Table 8A
# Description: Step 1: Preparation of Cathepsin B buffer: 0.1 M NaOAc/0.01M DTT (pH5.0) Dissolve 8.3 g/L NaOAc, 1.54 g/L DTT in deionized water. Adjust pH to 5.0 with HCl/sodium hydroxide.
# Step 2: Test Cleavage Rate
# • 1. Prepare 25 μM of testing sample: To a 2-mL-tube was added 0.5 mg of testing sample, followed by the addition of 0.2 mL of DMSO. The solution was added dropwise into 0.8 mL of 0.1 M NaOAc/0.01 M DTT buffer. The obtained mixtures were sonicated for 5 minutes to obtain clear and colorless solutions. The pH value of the solution was around 5 according to pH test strip. • 2. Preheat assay buffer: 0.1 M NaOAc/0.01 M DTT (pH 5.0) • 3. Spiking solutions for test compounds: 25 μM Spiking solutions for test compounds: Add 2 μL of 5 mM stock solution into 398 μL of 0.1 M NaOAc/0.01 M DTT buffer (pH 5.0). • 4. Prepare 0.47 μg/μL Cathepsin B in 50 mM NaOAc/1 mM EDTA (pH 5.0). Put on ice. • 5. Without CA074 samples: Add 4 μL of 0.47 μg/μL Cathepsin B into 196 μL of 25 μM Spiking solutions (from step 2), incubate the tubes at 37° C. • 6. With CA074 samples: Add 4 μL of 0.47 μg/μL Cathepsin B with 4 μL of 10 mM Inhibitor (CA074) into 196 μL of 25 μM Spiking solutions (from step 2), incubate the tubes. • 7. After quenching, shake the plate and centrifuge them at 14000 rpm. • 8. Transfer 50 μL of the supernatant from each well into a 96-well sample plate containing 50 μL of ultra pure water (Millipore, ZMQS50F01) for LC/MS analysis. Step 3: Test reference compounds: • 9. Preheat assay buffer: 100 mM Na/K phosphate, pH 6.0, with 1.33 mM EDTA and 2 mM DTT. • 10. Prepare 0.024 μg/μL Cathepsin B: Add 1 μL of 0.47 μg/μL Cathepsin B stock into 19 μL of assay buffer (from step 11). • 11. Add 2 μL of 0.024 μg/μL Cathepsin B (from step 12) to a opaque 96-well plate. • 12. Add 96 μL of assay buffer to each sample. • 13. Add 2 μL of the 10 mM substrate Z-RR-MNA (200 μM final concentration). • 14. For negative control (With inhibitor), add 2 μL of 10 mM Inhibitor (CA074): Immediately read the samples in a kinetic mode at excitation of 340 nm/emission of 425 nm (Read the plate every 30 Second for 3 min). Step 4: Stability of Cathepsin B in incubation samples: • 15. Take 5 μL of incubation samples into 93 μL of assay buffer (from step 11), and then add 2 μL of 10 mM substrate (Z-RR-MNA). • 16. Incubate the samples at 37° C. for 2 min. • 17. Read the samples at excitation of 340 nm/emission of 425 nm.
solubility at 10 min ([1]; Aq. Solubility (mg/mL)) [µg/mL],solubility at 10 min ([1]; Solubility) [µg/mL],Compound,CapB (%) (Cathepsin B),other results
–,–,CC[C@H](C)[C@@H]([C@@H](CC(=O)N1CCC[C@H]1[C@H](OC)[C@@H](C)C(=O)N[C@H](C)[C@@H](O)c1ccccc1)OC)N(C)C(=O)[C@@H](NC(=O)[C@H](C(C)C)N(C)C(=O)OCc1ccc(NC(=O)[C@H](CCCNC(N)=O)NC(=O)[C@@H](NC(=O)[C@@H](CCCCNC(=O)CCC(=O)N2Cc3ccccc3C#Cc3ccccc32)NC(=O)CCCCCN2C(=O)CC(N3CCN(CC4OC5OC6C(CO)OC(OC7C(CO)OC(OC8C(CO)OC(OC9C(CO)OC(OC%10C(CO)OC(OC4C(O)C5O)C(O)C%10O)C(O)C9O)C(O)C8O)C(O)C7O)C(O)C6O)CC3)C2=O)C(C)C)cc1)C(C)C (stereo partly drawn) [Ex38],–,"solubility at 10 min ([1]; aqueous, read-out: Aq. Solubility): 500 µg/mL; solubility at 10 min ([1]; read-out: Solubility): 250 µg/mL"
–,–,CC[C@H](C)[C@@H]([C@@H](CC(=O)N1CCC[C@H]1[C@H](OC)[C@@H](C)C(=O)N[C@H](C)[C@@H](O)c1ccccc1)OC)N(C)C(=O)[C@@H](NC(=O)[C@H](C(C)C)N(C)C(=O)OCc1ccc(NC(=O)[C@H](CCCNC(N)=O)NC(=O)[C@@H](NC(=O)[C@@H](CCCCNC(=O)CCOCCOCCOCCOCCNC(=O)COC2CCCCCc3c2nnn3CC2OC3OC4C(CO)OC(OC5C(CO)OC(OC6C(CO)OC(OC7C(CO)OC(OC8C(CO)OC(OC2C(O)C3O)C(O)C8O)C(O)C7O)C(O)C6O)C(O)C5O)C(O)C4O)NC(=O)CCOCCOCCOCCOCCNC(=O)CCC(=O)N2Cc3ccccc3C#Cc3ccccc32)C(C)C)cc1)C(C)C (stereo partly drawn) [Ex43],% (50< % ≤60 CapB (%)),–
–,–,CC[C@H](C)[C@@H]([C@@H](CC(=O)N1CCC[C@H]1[C@H](OC)[C@@H](C)C(=O)N[C@H](C)[C@@H](O)c1ccccc1)OC)N(C)C(=O)[C@@H](NC(=O)[C@H](C(C)C)N(C)C(=O)OCc1ccc(NC(=O)[C@H](CCCNC(N)=O)NC(=O)[C@@H](NC(=O)[C@@H](CCCCNC(=O)CCOCCOCCOCCOCCNC(=O)COC2CCCCCc3c2nnn3CC2OC3OC4C(CO)OC(OC5C(CO)OC(OC6C(CO)OC(OC7C(CO)OC(OC8C(CO)OC(OC2C(O)C3O)C(O)C8O)C(O)C7O)C(O)C6O)C(O)C5O)C(O)C4O)NC(=O)CCOCCOCCOCCOCCNC(=O)OC[C@@H]2[C@@H]3CCC#CCC[C@@H]32)C(C)C)cc1)C(C)C (stereo partly drawn) [Ex44],% (50< % ≤60 CapB (%)),–
180,330,"CC(C)[C@H](NC(=O)[C@@H](CCCCNC(=O)CCOCCOCCOCCOCCNC(=O)COC1CCCCCc2nnn(CC3OC4OC5C(CO)OC(OC6C(CO)OC(OC7C(CO)OC(OC8C(CO)OC(OC9C(CO)OC(OC3C(O)C4O)C(O)C9O)C(O)C8O)C(O)C7O)C(O)C6O)C(O)C5O)c21)NC(=O)CCOCCOCCOCCOCCNC(=O)OCC1C2CCC#CCCC21)C(=O)N[C@@H](C)C(=O)Nc1ccc2c(c1)[C@@]1(C)CCC[C@](C)(C(=O)NC(=O)[C@@]3(C)CCC[C@]4(C)c5cc(O)ccc5CC[C@@H]34)[C@@H]1CC2 (stereo partly drawn) [Ex51, BCN-PEG4-D-Lys(PEG4-COT-CD)-Val-Ala-1d]",–,–
300,290,"CC(C)[C@H](NC(=O)[C@@H](CCCCNC(=O)CCOCCOCCOCCOCCNC(=O)COC1CCCCCc2nnn(CC3OC4OC5C(CO)OC(OC6C(CO)OC(OC7C(CO)OC(OC8C(CO)OC(OC9C(CO)OC(OC3C(O)C4O)C(O)C9O)C(O)C8O)C(O)C7O)C(O)C6O)C(O)C5O)c21)NC(=O)CCOCCOCCOCCOCCNC(=O)OCC1C2CCC#CCCC21)C(=O)N[C@@H](CCCNC(N)=O)C(=O)Nc1ccc(COC(=O)NCCOc2ccc3c(c2)[C@@]2(C)CCC[C@](C)(C(=O)NC(=O)[C@@]4(C)CCC[C@]5(C)c6cc(O)ccc6CC[C@@H]45)[C@@H]2CC3)cc1 (stereo partly drawn) [Ex52, BCN-PEG4-D-Lys(PEG4-COT-CD)-vcPAB-1e]",–,–
300,–,"CC(C)[C@H](NC(=O)[C@@H](CCCCNC(=O)COC1CCCCCc2c1nnn2CC1OC2OC3C(CO)OC(OC4C(CO)OC(OC5C(CO)OC(OC6C(CO)OC(OC7C(CO)OC(OC1C(O)C2O)C(O)C7O)C(O)C6O)C(O)C5O)C(O)C4O)C(O)C3O)NC(=O)CCOCCOCCOCCOCCNC(=O)OCC1C2CCC#CCCC21)C(=O)N[C@@H](C)C(=O)Nc1ccc2c(c1)[C@@]1(C)CCC[C@](C)(C(=O)NC(=O)[C@@]3(C)CCC[C@]4(C)c5cc(O)ccc5CC[C@@H]34)[C@@H]1CC2 (stereo partly drawn) [Ex54, BCN-PEG4-D-Lys(COT-CD)-Val-Ala-1d]",–,–
< 100,< 100,"CC(C)[C@H](NC(=O)[C@@H](CCCCNC(=O)COC1CCCCCc2c1nnn2CC1OC2OC3C(CO)OC(OC4C(CO)OC(OC5C(CO)OC(OC6C(CO)OC(OC7C(CO)OC(OC1C(O)C2O)C(O)C7O)C(O)C6O)C(O)C5O)C(O)C4O)C(O)C3O)NC(=O)CCOCCOCCOCCOCCNC(=O)CCC(=O)N1Cc2ccccc2C#Cc2ccccc21)C(=O)N[C@@H](CCCNC(N)=O)C(=O)Nc1ccc(COC(=O)N[C@@H](CO)C(=O)Nc2ccc3c(c2)[C@@]2(C)CCC[C@](C)(C(=O)NC(=O)[C@@]4(C)CCC[C@]5(C)c6cc(O)ccc6CC[C@@H]45)[C@@H]2CC3)cc1 (stereo partly drawn) [Ex56, DIBAC-suc-PEG4-D-Lys(COT-CD)-vcPAB-1g]",–,–
–,–,"CC(C)[C@H](NC(=O)[C@@H](CCCCNC(=O)COC1CCCCCc2c1nnn2CC1OC2OC3C(CO)OC(OC4C(CO)OC(OC5C(CO)OC(OC6C(CO)OC(OC7C(CO)OC(OC8C(CO)OC(OC9C(CO)OC(OC1C(O)C2O)C(O)C9O)C(O)C8O)C(O)C7O)C(O)C6O)C(O)C5O)C(O)C4O)C(O)C3O)NC(=O)CCOCCOCCOCCOCCNC(=O)CCC(=O)N1Cc2ccccc2C#Cc2ccccc21)C(=O)N[C@@H](C)C(=O)Nc1ccc2c(c1)[C@@]1(C)CCC[C@](C)(C(=O)NC(=O)[C@@]3(C)CCC[C@]4(C)c5cc(O)ccc5CC[C@@H]34)[C@@H]1CC2 (stereo partly drawn) [Ex57, DIBAC-suc-PEG4-D-Lys(COT-CD)-vcPAB-1d]",–,capB (Cathepsin B): 8.3%
–,–,"CCCC1O[C@@H]2C[C@H]3[C@@H]4C[C@H](F)C5=CC(=O)C=C[C@]5(C)[C@@]4(F)[C@@H](O)C[C@]3(C)[C@]2(C(=O)CNC(=O)OCc2ccc(NC(=O)[C@H](CCCNC(N)=O)NC(=O)[C@@H](NC(=O)[C@@H](CCCCNC(=O)COC3CCCCCc4c3nnn4CC3OC4OC5C(CO)OC(OC6C(CO)OC(OC7C(CO)OC(OC8C(CO)OC(OC9C(CO)OC(OC3C(O)C4O)C(O)C9O)C(O)C8O)C(O)C7O)C(O)C6O)C(O)C5O)NC(=O)CCOCCOCCOCCOCCNC(=O)OC[C@@H]3[C@@H]4CCC#CCC[C@@H]43)C(C)C)cc2)O1 (stereo partly drawn) [Ex60, BCN-PEG4-dLys(COT-CD)-vcPAB-1h]",% (% ≤50 CapB (%)),–
–,–,"CCCC1O[C@@H]2C[C@H]3[C@@H]4C[C@H](F)C5=CC(=O)C=C[C@]5(C)[C@@]4(F)[C@@H](O)C[C@]3(C)[C@]2(C(=O)COc2ccc(NC(=O)OCc3ccc(NC(=O)[C@H](CCCNC(N)=O)NC(=O)[C@@H](NC(=O)[C@@H](CCCCNC(=O)COC4CCCCCc5c4nnn5CC4OC5OC6C(CO)OC(OC7C(CO)OC(OC8C(CO)OC(OC9C(CO)OC(OC%10C(CO)OC(OC4C(O)C5O)C(O)C%10O)C(O)C9O)C(O)C8O)C(O)C7O)C(O)C6O)NC(=O)CCOCCOCCOCCOCCNC(=O)CCC(=O)N4Cc5ccccc5C#Cc5ccccc54)C(C)C)cc3)cc2)O1 (stereo partly drawn) [Ex62, DIBAC-suc-PEG4-dLys(COT-CD)-vcPAB-1i]",% (% ≤50 CapB (%)),capB (Cathepsin B): 12.8%
